Test results reported in patent US6858402B2 (The Regents of the University of California, priority 1996, dated 2005).

Key:
TNF [1] = details: Shohami et al. (1997); cited from earlier work
THP-1 cells [2] = test: Induction of TRRE by PMA stimulation, TRRE assay of supernatant; type: cell-based, human; details: for TRRE Activity (U/ml): THP-1, 10^−6 M PMA 30 min
[3] = system: human peripheral blood monocytes; test: as above; type: cell-based; details: for TRRE Activity (U): Human Monocyte
Description: (§1) C75R cells and COS-1 cells were seeded into 24-well culture plates at a density of 2.5×10^5 cells/ml/well and incubated overnight (for 12 to 16 hours) in 5% CO2 at 37° C. […] (corresponding to A and C mentioned below, respectively). Simultaneously, C75R cells in 24-well plates were also incubated with 300 μl of fresh medium or buffer (corresponding to B mentioned below). The supernatants were collected, centrifuged, and then assayed for the concentration of soluble p75 TNF-R by ELISA as described above.
Mononuclear cells were harvested at the interface of an isotonic Ficoll cushion (specific gravity, 1.05) from a Leukopac obtained from normal healthy volunteers according to the manufacturer's instructions (Sigma). Then monocytes were isolated by counterflow centrifugal elutriation with a Beckman JE-5.0 system. On average, the purity of the monocyte fraction was over 95%, as judged by morphologic examination and nonspecific esterase staining, and viability was over 98% as assessed by the trypan blue dye exclusion test.
(§2) The stimulated cells were washed with serum-free medium and resuspended in the same volume of PMA-free medium with 1% FCS for 2 more hours in 5% CO2 at 37° C.

Raji = test: as above; type: cell-based, human; details: 10^−6 M PMA
Source text: (§3) THP-1 (a human monocytic leukemia cell line), U-937 (a human histiocytic lymphoma cell line), HL-60 (a human promyelocytic leukemia cell line), Raji (a human Burkitt lymphoma cell line) and K-562 (a human myelogenous leukemia cell line), which grow in suspension, and ME-180 (a human epidermoid carcinoma cell line) and MRC-5 (a human lung fibroblast cell line), which grow adherently, were purchased from American Type Culture Collection (Rockville, Md.). These cell lines were passed twice a week in RPMI-1640/10% heat-inactivated FCS.
(§4) Suspension cell lines including THP-1, U-937, HL-60, Raji and K-562 at a density of 1×10^6 cells/ml were stimulated in RPMI-1640/1% FCS-with 10^−6 M PMA for 30 min in 5% CO2 at 37° C. After pelleting the cells and discarding the supernatants, the cells were washed once with serum-free medium and then incubated for 2 more hours at the same density of 1×10^6 cells/ml in PMA-free RPMI-1640/1% FCS. Adherent cell lines including ME-180 and MRC-5 were seeded in 100 mm cell culture plates with RPMI-1640/10% FCS-at a density of 6×10^6 cells/10 ml/plate in 5% CO2 at 37° C. overnight. After discarding the medium from the 100 mm plates, these adherent cells were stimulated in 6 ml of RPMI-1640/1% FCS with 10^−6 M PMA (at an approximate density of 1×10^6 cells/ml) for 30 min in 5% CO2 at 37° C. Following washing of the plates with serum-free medium 3 times, the cells were incubated for 2 more hours in 6 ml of PMA-free RPMI-1640/1% FCS.

HL-60 = test: as above; type: cell-based, human; details: HL-60, 10^−6 M PMA
Source text: as §3, §4

ME-180 = test: as above; type: cell-based, human; details: ME-180, 10^−6 M PMA
Source text: as §3, §4

U-937 = test: as above; type: cell-based, human; details: U-937, 10^−6 M PMA
Source text: as §3, §4

MRC-5 = test: as above; type: cell-based, human; details: MRC-5, 10^−6 M PMA
Source text: as §3, §4

K-562 = test: as above; type: cell-based, human; details: K-562, 10^−6 M PMA
Source text: as §3, §4

THP-1 cells [4] = test: as above; type: cell-based, human
Description: THP-1 cells growing in logarithmic phase were collected and resuspended to 1×10^6 cells/ml of RPMI-1640 supplemented with 1% FCS and incubated with 10^−6 M PMA for 30 min in 5% CO2 at 37° C. The cells were collected and washed once with serum-free medium to remove PMA and resuspended in the same volume of RPMI-1640 with 1% FCS. After 2 hours incubation in 5% CO2 at 37° C., the cell suspension was collected, centrifuged, and the cell-free supernatant was collected as the TRRE-containing sample.
Briefly, C75R and COS-1 cells were seeded at 2.5×10^5 cells/ml/well in a 24-well culture plate and incubated in 5% CO2 at 37° C. for 12 to 16 hours. […] Simultaneously, C75R was incubated with 300 μl of fresh medium or buffer. At the end of the incubation period, the samples from each well were collected and the levels of soluble p75 TNF-R were measured by ELISA.
as §1, §2, §4
THP-1 cells were stimulated with 10−6 M PMA in RPMI-1640 with 1% FCS for 30 min.
THP-1 cells at a density of 1×10^6 cells/ml were stimulated in 1% FCS-contained RPMI-1640 with 10^−6 M PMA for 30 min at 37° C. in 5% CO2. After washing the cells with serum-free medium to remove PMA, the cells were incubated in the same volume of 1% FCS-contained RPMI-1640 without PMA for 2 hours at 37° C. in 5% CO2. Then the cells were centrifuged down and the supernatant was collected for TRRE assay. These pelleted cells were again resuspended in 1% FCS-contained RPMI-1640 with or without 10^−6 M PMA and incubated for 30 min at 37° C. in 5% CO2. After washing the cells with serum-free medium to remove PMA, the cells, stimulated or non-stimulated by PMA, were incubated in the same volume of 1% FCS-contained RPMI-1640 without PMA for 2 and 4 hours each at 37° C. in 5% CO2.

[5] = system: soluble p75 and p55 TNF-R; details: Crowe et al. (1995); Mullberg et al. (1995); cited from earlier work
TNF [6] = details: in vitro and in vivo; Solorzano et al. (1997); cited from earlier work
[7] = Bauditz et al. (1997); cited from earlier work

CCCCCCC(C)(C)c1cc(O)c2c(c1)OC(C)(C)[C@H]1CC=C(CO)C[C@H]21 [dexanabinol]
protection against TNF following traumatic brain injury (TNF [1]): provided protection

CCCCCCCCCCCCCC(=O)O[C@@H]1[C@@H](C)[C@@]2(O)[C@@H](C=C(CO)C[C@]3(O)C(=O)C(C)=C[C@@H]23)[C@@H]2C(C)(C)[C@]12OC(C)=O [PMA, phorbol 12-myristate 13-acetate]
TRRE produced (FIG. 10A) (THP-1 cells [2]; PMA-stimulated THP-1, 0% FCS): 217 U/ml
TRRE Activity (U/ml) (THP-1 cells [2]; then 2 hours PMA-free with 0% FCS): 224 U/ml
TRRE Activity (U/ml) (THP-1 cells [2]; then 2 hours PMA-free with 10% FCS): 2,275 U/ml
TRRE induction (THP-1 cells [2]; THP-1, 10^−8 M PMA): did not induce any TRRE
TRRE Activity (U) (THP-1 cells [2]; THP-1, PMA 10^−7 M): 368 U
TRRE Activity (U) ([3]; PMA 10^−6 M): 883 U
TRRE Activity (U) ([3]; PMA 10^−7 M): 51 U
TRRE release ([3]; human monocytes, 10^−6 M PMA 30 min, then 2 hours PMA-free): 883 U/ml
TRRE induction ([3]; monocytes, 10^−8 M PMA): did not induce any TRRE
TRRE (U/ml/10^6 cells) (Raji): 2,390 U/ml/10^6 cells
TRRE (U/ml/10^6 cells) (HL-60): 3,144 U/ml/10^6 cells
TRRE (U/ml/10^6 cells) (ME-180): 1,694 U/ml/10^6 cells
TRRE (U/ml/10^6 cells) (U-937): 3,288 U/ml/10^6 cells
TRRE (U/ml/10^6 cells) (MRC-5): 1,477 U/ml/10^6 cells
TRRE (U/ml/10^6 cells) (K-562): 3,356 U/ml/10^6 cells
TRRE produced (FIG. 10A) (THP-1 cells [4]; PMA-stimulated THP-1, 1% FCS): 2,096 U/ml
TRRE (U/ml/10^6 cells) (THP-1 cells [4]; THP-1, 10^−6 M PMA): 2,884 U/ml/10^6 cells
TRRE release (THP-1 cells [4]; THP-1, 10^−6 M PMA 30 min, then 2 hours PMA-free): 1,304 U/ml
TRRE Activity (U/ml) (THP-1 cells [4]; THP-1, 10^−6 M PMA 30 min, then 2 hours PMA-free with 1% FCS): 1,356 U/ml
TRRE Activity (U) (THP-1 cells [4]; THP-1, PMA 10^−6 M): 1,304 U
TRRE released (THP-1 cells [4]; THP-1, after first PMA stimulation, no second PMA, 2 hours and 4 hours): no TRRE activity
TRRE released (THP-1 cells [4]; THP-1, first stimulation of PMA): 951 U/ml
TRRE released (THP-1 cells [4]; THP-1, second PMA stimulation 30 min, additional 2 hours PMA-free): 1,245 U/ml
TRRE released (THP-1 cells [4]; THP-1, second PMA stimulation 30 min, additional 4 hours PMA-free): 1,044 U/ml

TAPI
shedding of soluble p75 and p55 TNF-R [5]: blocks the shedding

CNC(=O)[C@H](Cc1c[nH]c2ccccc12)NC(=O)[C@@H](CC(=O)NO)CC(C)C [GM-6001]
release of TNF (TNF [6]): prevents the release of TNF

CC(=O)CCCCn1c(=O)c2c(ncn2C)n(C)c1=O [oxpentifylline]
course of Crohn's disease [7]: did not alter the course
